Assay results from PMC8496750, “Identification of the organic anion transporting polypeptides responsible for the hepatic uptake of the major metabolite of epyrifenacil, S‐3100‐CA, in mice” (Pharmacology Research & Perspectives, 2021).
Like-named read-outs stand apart in the source and are kept apart here.

Key:
[1] = Metabolite analysis in plasma, liver, and kidney (TLC); format: in vivo, Crl:CD1(ICR) mice; conditions: for concentration at 2 h / Kp at 2 h: Crl:CD1(ICR), mouse, oral; for Kp at 2 h: liver and plasma, read-out: Liver/plasma ratio of S‐3100‐CA; for Kp at 2 h / S‐3100‐CA concentration in liver: 2 h
Excerpt: Precoated silica gel 60 F254 chromatoplate (20 × 20 cm, 0.25‐ or 0.5‐mm layer thickness, Merck KGaA) was used for two‐dimensional thin layer chromatography (2D‐TLC) analysis. The solvent systems were ethyl formate/formic acid (95/5, v/v) for the first dimension, and ethyl acetate/acetic acid (95/5, v/v) for the second dimension. The radioactivity on the TLC plates was detected by autoradiography using an imaging plate processed with a fluoro‐image analyzer (FLA‐9500, GE Healthcare). The identity of the metabolites was confirmed by co‐chromatography in comparison with authentic metabolite standards.
Three mice per sex at 8 weeks old were given a single oral dose of [^14C]epyrifenacil at 1 mg/kg with or without co‐administration of OATP inhibitors. […] At 2 h after administration of [^14C]epyifenacil, the animals were euthanized by whole blood collection from the abdominal aorta under anesthesia with isoflurane. The sampling time point was selected as the time around T max based on the result of the blood ^14C‐concentration study. Then, the liver and kidney were dissected out, and the amount of ^14C was measured. Aliquots of heparinized blood samples were separated into blood cells and plasma by centrifugation at 2000g for 10 min at 4°C. The total weight of the liver and kidney was determined for each animal. Two aliquots of plasma and tissue samples (approximately 0.05–0.1 g) were weighed in a glass vial, and the radioactivity was measured.
Approximately 0.3 g of liver, kidney, and plasma samples were pooled, respectively, for each dose and gender to obtain samples for analysis. Pooled liver, kidney, and plasma (ca. 1 g each) samples were homogenized with an approximately 3‐fold volume (v/w) of methanol using the mixer mill MM400 (5 min, 25 cycles/second, Retsch GmbH) and centrifuged (10 000g, 5 min, 4°C) to separate the supernatants from the residues. The extraction was repeated one additional time. The supernatants obtained were pooled and labeled liver, kidney, and plasma extracts. These samples were concentrated and then subjected to TLC analysis. For calculation of extraction efficacy, the post‐extraction solids (PESs) from the tissues and plasma extracts were sampled in low potassium glass vials. PESs were solubilized with 3 M potassium hydroxide solution (approximately 1 ml), then bleached with 30% hydrogen peroxide solution, and finally mixed with 10 ml of Hionic‐Fluor to measure the radioactivity.

[2] = Blood ^14C‐concentrations study; format: in vivo, Crl:CD1(ICR) mice; conditions: 1 mg/kg single oral
Protocol: Crl:CD1(ICR) mice at the age of 7 weeks were purchased from Charles River Laboratories Japan, Inc., Hino Breeding Center. The mice at the age of 8 or 9 weeks were dosed after completing a 7‐day quarantine period and an additional 0‐ to 7‐day acclimatization period. All animal experiments were conducted in accordance with the Guidance for the Care and Use of Laboratory Animals in our laboratory, which corresponds to the Guidelines for Proper Conduct of Animal Experiments (Science Council of Japan). Animals were maintained under constant environmental conditions: room temperature, 21−25°C; relative humidity, 55% ±15%; ventilation, 10 air exchanges per hour; and artificial lighting, from 8:00 am to 8:00 pm. The animals were provided with pelleted diet and water ad libitum. […] All animals were euthanized by bleeding from the abdominal artery under anesthesia.
[^14C]Epyrifenacil was isotopically diluted with the unlabeled test compound to adjust the specific activity to 5.00 MBq/mg. After evaporation of the solvent under nitrogen gas flow, labeled material was suspended in 0.5% (w/v) methylcellulose solution at a concentration of 1 mg/5 ml by grinding in a mortar. The suspension was stored frozen until the start of dosing. […] These dosing suspensions were stored in a refrigerator until dosing commenced.
Two mice per sex at 8 weeks old were given a single oral dose of [^14C]epyrifenacil at 1 mg/kg. Approximately 0.06–0.08 g of blood sample was periodically taken from the saphenous vein at 1, 2, 4, and 8 h after administration, and transferred to vials to measure the radioactivity in whole blood. […] AUC0‐∞ was calculated as the sum of AUC0‐8 h and AUC8 h‐∞. AUC0‐8 h was obtained using a trapezoidal rule, and AUC8 h‐∞ was calculated with a mono‐exponential equation describing the ^14C‐disappearance phase.

Cn1c(C(F)(F)F)cc(=O)n(-c2cc(Oc3cccnc3OCC(=O)O)c(Cl)cc2F)c1=O [S‐3100‐CA]
concentration at 2 h ([1]; kidney, with rifampicin (OATP inhibitor) 200 mg/kg p.o., Female, 2 h after [^14C]Epyrifenacil 1 mg/kg p.o. + Rifampicin 200 mg/kg p.o., read-out: Metabolite concentration, Kidney): 50 ng/g | concentration at 2 h ([1]; kidney, with rifampicin (OATP inhibitor) 200 mg/kg p.o., Male, 2 h after [^14C]Epyrifenacil 1 mg/kg p.o. + Rifampicin 200 mg/kg p.o., read-out: Metabolite concentration, Kidney): 73 ng/g | concentration at 2 h ([1]; kidney, Female, 2 h after [^14C]Epyrifenacil 1 mg/kg p.o., read-out: Metabolite concentration, Kidney): 96 ng/g | concentration at 2 h ([1]; kidney, Male, 2 h after [^14C]Epyrifenacil 1 mg/kg p.o., read-out: Metabolite concentration, Kidney): 55 ng/g | concentration at 2 h ([1]; liver, with rifampicin (OATP inhibitor) 200 mg/kg p.o., Female, 2 h after [^14C]Epyrifenacil 1 mg/kg p.o. + Rifampicin 200 mg/kg p.o., read-out: Metabolite concentration, Liver): 660 ng/g | concentration at 2 h ([1]; liver, with rifampicin (OATP inhibitor) 200 mg/kg p.o., Male, 2 h after [^14C]Epyrifenacil 1 mg/kg p.o. + Rifampicin 200 mg/kg p.o., read-out: Metabolite concentration, Liver): 1370 ng/g | concentration at 2 h ([1]; liver, Female, 2 h after [^14C]Epyrifenacil 1 mg/kg p.o., read-out: Metabolite concentration, Liver): 3520 ng/g | concentration at 2 h ([1]; liver, Male, 2 h after [^14C]Epyrifenacil 1 mg/kg p.o., read-out: Metabolite concentration, Liver): 4740 ng/g | concentration at 2 h ([1]; plasma, with rifampicin (OATP inhibitor) 200 mg/kg p.o., Female, 2 h after [^14C]Epyrifenacil 1 mg/kg p.o. + Rifampicin 200 mg/kg p.o., read-out: Metabolite concentration, Plasma): 143 ng/g | concentration at 2 h ([1]; plasma, with rifampicin (OATP inhibitor) 200 mg/kg p.o., Male, 2 h after [^14C]Epyrifenacil 1 mg/kg p.o. + Rifampicin 200 mg/kg p.o., read-out: Metabolite concentration, Plasma): 76 ng/g | concentration at 2 h ([1]; plasma, Female, 2 h after [^14C]Epyrifenacil 1 mg/kg p.o., read-out: Metabolite concentration, Plasma): 68 ng/g | concentration at 2 h ([1]; plasma, Male, 2 h after [^14C]Epyrifenacil 1 mg/kg p.o., pooled samples, read-out: Metabolite concentration, Plasma): 54 ng/g | Share of ^14C in liver ([1]; all dose groups): over 70% | Kp at 2 h ([1]; female, 1 mg/kg, females, epyrifenacil 1 mg/kg p.o. without inhibitors): 52 | Kp at 2 h ([1]; female, females, DGX co‐administrated (oral or intraperitoneal)): 50 to 56 | Kp at 2 h ([1]; female, females, RIF co‐administrated): 5 | S‐3100‐CA concentration in liver ([1]; females, RIF co‐administrated): 0.660 ppm | Kp at 2 h ([1]; male, 1 mg/kg, males, epyrifenacil 1 mg/kg p.o. without inhibitors): 88 | Kp at 2 h ([1]; male, males, DGX co‐administrated (oral or intraperitoneal)): 89 to 139 | Kp at 2 h ([1]; male, males, RIF co‐administrated): 18 | S‐3100‐CA concentration in liver ([1]; males, RIF co‐administrated): 1.371 ppm

CCOC(=O)COc1ncccc1Oc1cc(-n2c(=O)cc(C(F)(F)F)n(C)c2=O)c(F)cc1Cl [Epyrifenacil, ethyl[(3‐{2‐chloro‐4‐fluoro‐5‐[3‐methyl‐2,6‐dioxo‐4‐(trifluoromethyl)‐3,6‐dihydropyrimidin‐1(2H)‐yl]phenoxy}pyridin‐2‐yl)oxy]acetate]
^14C‐Concentration in blood ([2]; 1 h, Female Animal_1): 0.127 µg eq. of epyrifenacil/g | ^14C‐Concentration in blood ([2]; 1 h, Female Animal_2): 0.073 µg eq. of epyrifenacil/g | ^14C‐Concentration in blood ([2]; 1 h, Male Animal_1): 0.030 µg eq. of epyrifenacil/g | ^14C‐Concentration in blood ([2]; 1 h, Male Animal_2): 0.030 µg eq. of epyrifenacil/g | ^14C‐Concentration in blood ([2]; 2 h, Female Animal_1): 0.111 µg eq. of epyrifenacil/g | ^14C‐Concentration in blood ([2]; 2 h, Female Animal_2): 0.064 µg eq. of epyrifenacil/g | ^14C‐Concentration in blood ([2]; 2 h, Male Animal_1): 0.031 µg eq. of epyrifenacil/g | ^14C‐Concentration in blood ([2]; 2 h, Male Animal_2): 0.034 µg eq. of epyrifenacil/g | ^14C‐Concentration in blood ([2]; 4 h, Female Animal_1): 0.076 µg eq. of epyrifenacil/g | ^14C‐Concentration in blood ([2]; 4 h, Female Animal_2): 0.060 µg eq. of epyrifenacil/g | ^14C‐Concentration in blood ([2]; 4 h, Male Animal_1): 0.028 µg eq. of epyrifenacil/g | ^14C‐Concentration in blood ([2]; 4 h, Male Animal_2): 0.051 µg eq. of epyrifenacil/g | ^14C‐Concentration in blood ([2]; 8 h, Female Animal_1): 0.045 µg eq. of epyrifenacil/g | ^14C‐Concentration in blood ([2]; 8 h, Female Animal_2): 0.061 µg eq. of epyrifenacil/g | ^14C‐Concentration in blood ([2]; 8 h, Male Animal_1): 0.024 µg eq. of epyrifenacil/g | ^14C‐Concentration in blood ([2]; 8 h, Male Animal_2): 0.033 µg eq. of epyrifenacil/g | C max of ^14C in blood ([2]; female mice): 0.100 μg eq. of epyrifenacil/g | C max of ^14C in blood ([2]; male mice): 0.040 μg eq. of epyrifenacil/g
